The supplement of paper PMC10307832

Legend:
Test in all cases: relative viability (nuclei count vs DMSO), 5 days (fraction); higher = more cells survive
[1] = compound: COc1cc2nc(N3CCCN(C)CC3)nc(NC3CCN(Cc4ccccc4)CC3)c2cc1OC + N=C(N)NC(=N)NCCc1ccccc1 [Phenformin] (partner 250 µM)
How it was run: (§1)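 Nuclei were stained with Hoechst during a one-step fixation (final 0.05% Triton X-100, 1% formaldehyde, 1 ug/ml Hoechst) carried out 5 days after dosing, then counted on 4× images. The cells, lung cancer lines in 1536-well plates, had been dosed by pin tool the day after seeding with one drug alone or a fixed anchor-drug dose plus five library-drug doses (not always all listed) in √10 steps. Relative viability is the nuclei count in treated wells divided by that in vehicle wells, and each value is the median of duplicate plates.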

[2] = compound: Cc1cc([C@@H](C)Nc2ccccc2C(=O)O)c2nc(N3CCOCC3)cc(=O)n2c1 [AZD6482] + CC1(C)CCC(c2ccc(Cl)cc2)=C(CN2CCN(c3ccc(C(=O)NS(=O)(=O)c4ccc(N[C@H](CCN5CCOCC5)CSc5ccccc5)c(S(=O)(=O)C(F)(F)F)c4)cc3)CC2)C1 [Navitoclax] (partner 0.5 µM)
How it was run: as §1

[3] = compound: COc1cc2nc(N3CCCN(C)CC3)nc(NC3CCN(Cc4ccccc4)CC3)c2cc1OC + CC(=O)Nc1cccc(-n2c(=O)n(C3CC3)c(=O)c3c(Nc4ccc(I)cc4F)n(C)c(=O)c(C)c32)c1 [Trametinib] (partner 0.02 µM)
How it was run: as §1

[4] = compound: COc1cc2nc(N3CCCN(C)CC3)nc(NC3CCN(Cc4ccccc4)CC3)c2cc1OC + Nc1ncn([C@H]2C[C@H](O)[C@@H](CO)O2)c(=O)n1 [Decitabine] (partner 2 µM)
How it was run: as §1

Cell Line | relative viability ([1]; first compound 0.2 µM) | relative viability ([1]; first compound 0.6325 µM) | relative viability ([1]; first compound 2 µM) | relative viability ([1]; first compound 6.325 µM) | relative viability ([2]; first compound 0.08 µM) | relative viability ([2]; first compound 0.8 µM) | relative viability ([2]; first compound 2.53 µM) | relative viability ([2]; first compound 8 µM) | relative viability ([3]; first compound 0.2 µM) | relative viability ([3]; first compound 0.6325 µM) | relative viability ([3]; first compound 2 µM) | relative viability ([3]; first compound 6.325 µM) | relative viability ([4]; first compound 0.2 µM) | relative viability ([4]; first compound 0.6325 µM) | relative viability ([4]; first compound 2 µM) | relative viability ([4]; first compound 6.325 µM) | relative viability ([2]; first compound 0.253 µM)
NCI-H1650 | 0.494 | 0.612 | 0.379 | 0.369 | 0.873 | 0.747 | 0.702 | 0.819 | 0.576 | 0.601 | 0.499 | 0.511 | 0.403 | 0.399 | 0.377 | 0.353 | 
BEN | 0.252 | 0.251 | 0.229 | 0.276 | 0.058 | 0.0638 | 0.0645 | 0.178 | 1.06 | 1.04 | 1.02 | 1.1 | 0.765 | 0.743 | 0.914 | 0.699 | 0.0744
EMC-BAC-2 | 0.531 | 0.477 | 0.496 | 0.523 | 1.09 | 1.12 | 0.916 | 0.971 | 0.873 | 0.857 | 0.899 | 0.732 | 0.997 | 0.968 | 0.882 | 0.915 | 1.08
LU99A | 0.846 | 0.827 | 0.691 | 0.857 | 0.753 | 0.81 | 0.515 | 0.529 | 0.531 | 0.47 | 0.541 | 0.526 | 0.863 | 0.857 | 0.893 | 0.811 | 0.757
ABC-1 | 0.223 | 0.2 | 0.26 | 0.319 |  |  |  |  |  |  |  |  | 0.969 | 1.09 | 0.929 | 1.19 | 
NCI-H2170 | 0.402 | 0.407 | 0.425 | 0.387 | 0.502 | 0.594 | 0.444 | 0.476 | 0.989 | 0.856 | 0.959 | 0.948 | 0.487 | 0.454 | 0.49 | 0.46 | 0.558
NCI-H1299 |  |  |  |  | 0.982 | 1.1 | 0.917 | 1.04 |  |  |  |  |  |  |  |  | 1.04
EBC-1 |  |  |  |  | 0.273 | 0.322 | 0.191 | 0.241 |  |  |  |  |  |  |  |  | 0.318
NCI-H2347 | 0.399 | 0.447 | 0.555 | 0.408 |  | 0.445 | 0.283 | 0.235 | 0.275 | 0.299 | 0.271 | 0.377 | 0.586 | 0.617 | 0.615 | 0.606 | 0.423
NCI-H1993 | 0.528 | 0.442 | 0.528 | 0.501 | 0.779 |  |  | 0.654 | 0.497 | 0.485 | 0.414 | 0.589 | 0.566 | 0.522 | 0.58 | 0.568 | 0.784
